According to US20180015054A1, “Method of Maintaining the Anti-Depressant Effect of Ketamine With Lithium” (Icahn School of Medicine at Mount Sinai, priority 2014, published 2018):

Legend:
[1] = test system: patients with treatment-resistant major depression; details: cited from earlier work
[2] = test system: patients with treatment-resistant major depression; details: cited from earlier work; remark: listed apart in the source
depressive symptoms = details: cited from earlier work
[3] = test system: patients with treatment-resistant depression (TRD); details: cited from earlier work
[4] = test system: patients with BPD, TRD, MDD and PTSD; details: cited from earlier work
PTSD symptom severity = details: assessed 24 hours after infusion; cited from earlier work
PTSD patients = details: three clusters: re-experiencing, avoidance and numbing, hyperarousal; cited from earlier work
[5] = test system: patients with treatment-resistant major depression (TRD); experiment: Planned randomized placebo-controlled double-blind trial of lithium + ketamine in TRD; assay type: in vivo, human
Excerpt: A single-site early phase study will enroll patients with treatment-resistant major depression (TRD) in a randomized, placebo (PLC)-controlled, double blind clinical trial of lithium (Li)+ketamine (KET). The study will efficiently test the efficacy of Li compared to PLC in continuing the antidepressant response to KET. The study occurs in several phases. During a Screening phase participants undergo informed consent followed by a thorough medical and psychiatric evaluation. Eligible participants who meet all study inclusion/exclusion criteria receive a single Test KET(ketamine) Infusion to determine antidepressant response status. Non-responders [defined as <50% improvement in depression severity as measured by the Montgomery-Asberg Depression Rating Scale (MADRS) 24 hours following the infusion] are exited from the study and provided with standard of care. KET responders (2:50% improvement in MADRS) proceed to the Li/PLC treatment phase in which participants receive up to 1200 mg/day of Li or matching PLC under double blind conditions. Participants proceed to a 4-week Continuation Phase while remaining on their treatment assignment (Li/PLC) during which time depressive symptoms are monitored twice weekly. The primary outcome is depression severity as measured by the MADRS in the Li compared to PLC group at the 2-week point during the Continuation Phase. […]

## CNC1(c2ccccc2Cl)CCCCC1=O (centres unmarked) [ketamine]
[1]; 3-month observation period, free of concomitant medication
  cumulative risk of relapse: 70%
[1]; after first ketamine infusion
  time to rapid improvement in depressive symptoms: ≤ 24 h
[1]; following sixth and final ketamine infusion
  median time to relapse: 18 days
[1]; repeated infusions over 2 weeks
  overall response rate: 70.8%
[2]; 24 hours after single IV infusion 0.5 mg/kg, P<0.001
  improvement in MADRS score compared to midazolam group: significantly greater improvement
[2]; no longer separated from placebo at 7-day time point
  duration of efficacy following a ketamine infusion: 1 week
[2]; no patient beyond this time
  duration of dissociative or psychotomimetic effects: ≤ 2 h
[2]; single IV infusion 0.5 mg/kg
  safety and tolerability: very safe and well tolerated
Depressive symptoms; 4-week assessment period after ketamine
  cumulative probability of relapse: 73%
[3]; 4-week observation period after ketamine
  cumulative risk of relapse: 62%
[3]; 26 TRD patients, single open-label IV infusion 0.5 mg/kg
  response rate (reduction of 50% or more on MADRS): 65%
[4]; as early as, following single intravenous administration
  onset of antidepressant effects: 40 min
[4]; following a single administration
  duration of antidepressant efficacy: a few days to approximately a week or two
PTSD symptom severity
  reduction in PTSD symptom severity compared with midazolam: significant and rapid reduction

## CN[C@H]1CC[C@@H](c2ccc(Cl)c(Cl)c2)c2ccccc21 [sertraline]
PTSD patients
  efficacy in PTSD: modest effect sizes and limited efficacy

## Fc1ccc([C@@H]2CCNC[C@H]2COc2ccc3c(c2)OCO3)cc1 [paroxetine]
PTSD patients
  efficacy in PTSD: modest effect sizes and limited efficacy

## Nc1nc2ccc(OC(F)(F)F)cc2s1 [riluzole]
Depressive symptoms; 4-week study
  relapse prevention following ketamine compared to placebo: no benefit of riluzole beyond placebo
[3]; TRD
  relapse prevention following ketamine compared to placebo: not superior to placebo

## O=C([O-])[O-].[Li+].[Li+] [lithium, lithium carbonate]
[5]; ketamine responders receiving lithium, after last dose of ketamine
  anticipated maintenance of the ketamine anti-depressant effect: at least two or three months
[5]; lithium carbonate 300-1800 mg daily
  expected duration of therapeutic effect of lithium following a response to ketamine: at least 3 months
